Here are results for seven compounds from US20240209053A1 (Protagonist Therapeutics, Inc., priority 2021, published 2024).

For orientation: IC50 means the point on the concentration scale where inhibition reaches its midpoint. High values mean lower potency, low ones higher potency.

Numbered stars: 1 amine (or outer) side, 2 acyl side, 3 side chain; on linkers, the order of the positions; unused ones are H or OH. Bridge positions count the residues as written; N and C are the ends. Square brackets hold non-standard residues; d marks the D form. Side chains are listed from the residue outwards. Peptide text beside a SMILES is read from it. * marks the point of attachment. Dip = N[C@H](C(=O)O)C(c1ccccc1)c1ccccc1; Hag = O=C([C@H](CCC=[*:3])N[*:1])[*:2]; Palmitoyl = CCCCCCCCCCCCCCCC(=O)*; tBuAla = CC(C)(C)C[C@H](N)C(=O)O; β3hF = N[C@H](CC(=O)O)Cc1ccccc1; Isovaleryl = CC(C)CC(=O)*; Ahx = NCCCCCC(=O)O; GABA = NCCCC(=O)O

The assay concerns the target T1, human ferroportin (SLC40A1) (Homo sapiens, UniProt Q9NP59).
T1 sequence (Q9NP59 1-571): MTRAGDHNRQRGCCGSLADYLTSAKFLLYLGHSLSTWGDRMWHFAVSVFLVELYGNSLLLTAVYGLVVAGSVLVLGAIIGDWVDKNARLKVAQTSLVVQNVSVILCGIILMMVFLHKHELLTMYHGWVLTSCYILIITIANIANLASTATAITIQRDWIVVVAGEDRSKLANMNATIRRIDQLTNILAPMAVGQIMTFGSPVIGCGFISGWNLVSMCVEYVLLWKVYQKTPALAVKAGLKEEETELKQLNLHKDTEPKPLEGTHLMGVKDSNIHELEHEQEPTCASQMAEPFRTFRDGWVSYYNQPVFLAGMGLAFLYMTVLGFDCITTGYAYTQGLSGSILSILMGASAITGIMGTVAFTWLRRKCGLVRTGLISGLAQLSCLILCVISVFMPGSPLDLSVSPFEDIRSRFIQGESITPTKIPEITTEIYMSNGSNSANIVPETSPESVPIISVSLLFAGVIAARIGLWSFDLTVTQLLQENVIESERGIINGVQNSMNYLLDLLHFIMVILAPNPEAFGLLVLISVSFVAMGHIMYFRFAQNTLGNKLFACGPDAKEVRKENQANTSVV
The experiment in a line: FPN activity assay: internalization/degradation of ferroportin-GFP in stably transfected HEK293 cells (decrease in GFP fluorescence). As to conditions: compound incubated at least 18 hours. Format: cell-based. How it is done:
Peptide analogues were tested in vitro for induction of internalization of the human ferroportin protein. Following internalization, the ferroporin protein is degraded. The assay used (FPN activity assay) measures a decrease in fluorescence of the receptor. The cDNA encoding the human ferroportin (SLC40A1) was cloned from a cDNA clone from Origene (NM_014585). The DNA encoding the ferroportin was amplified by PCR using primers also encoding terminal restriction sites for subcloning, but without the termination codon. The ferroportin receptor was subcloned into a mammalian GFP expression vector containing a neomycin (G418) resistance marker in such that the reading frame of the ferroportin was fused in frame with the GFP protein. The fidelity of the DNA encoding the protein was confirmed by DNA sequencing. HEK293 cells were used for transfection of the ferroportin-GFP receptor expression plasmid. The cells were grown according to standard protocol in growth medium and transfected with the plasmids using Lipofectamine (manufacturer's protocol, Invitrogen). The cells stably expressing ferroportin-GFP were selected using G418 in the growth medium (in that only cells that have taken up and incorporated the cDNA expression plasmid survive) and sorted several times on a Cytomation MoFloTM cell sorter to obtain the GFP-positive cells (488 nm/530 nm). The cells were propagated and frozen in aliquots. […] Compound was added to desired final concentration for at least 18 hours in the incubator. […] Compound was added to desired final concentration for at least 18 hours but no more than 24 hours in the incubator. […] The “RI” in RI-Mini-Hepcidin refers to Retro Inverse. A retro inverse peptide is a peptide with a reversed sequence in all D amino acids. An example is that […] becomes […]. The EC50 of these reference compounds for ferroportin internalization/degradation was determined according to the FPN activity assay described above. These peptides served as control standards.
In turn, `CCCCCCCCCCCCCCCC(=O)NCCCCCC(=O)NCCCC[C@@H]1NC(=O)C[C@H](Cc2ccccc2)NC(=O)[C@@H](CCCCN)NC(=O)[C@H]([C@@H](C)CC)NC(=O)[C@H](C)NC(=O)[C@@H]2CCCN2C(=O)[C@H](C(c2ccccc2)c2ccccc2)NC(=O)[C@H](Cc2c[nH]cn2)NC(=O)[C@H]([C@@H](C)O)NC(=O)[C@@H](NC(=O)CC(C)C)CCC=CCC[C@@H](C(N)=O)NC1=O` [Compd 84] (Isovaleryl-[Hag]TH[Dip]PAI[dK][β3hF]K([Ahx-Palmitoyl])[Hag]-NH2; staple 1-11) gave a concentration for half-maximal inhibition (IC50) of 100 to 500 nM.

Turning to `CCCCCCCCCCCCCCCC(=O)NCCCCCC(=O)NCCCC[C@H](NC(=O)C[C@H](Cc1ccccc1)NC(=O)[C@@H]1CCC=CCC[C@H](NC(=O)CC(C)C)C(=O)N[C@@H]([C@@H](C)O)C(=O)N[C@@H](Cc2c[nH]cn2)C(=O)N[C@@H](C(c2ccccc2)c2ccccc2)C(=O)N[C@@H](C)C(=O)N[C@@H](C)C(=O)N[C@@H]([C@@H](C)CC)C(=O)N1)C(=O)N[C@H](CCCCN)C(N)=O` [Compd 44] (Isovaleryl-[Hag]TH[Dip]AAI[Hag][β3hF]K([Ahx-Palmitoyl])[dK]-NH2; staple 1-8), the half-inhibitory concentration (IC50) lay within 10 to 100 nM.

As to `CCCCCCCCCCCCCCCC(=O)NCCCCCC(=O)NCCCC[C@H](NC(=O)[C@@H]1CCC=CCC[C@H](NC(=O)CC(C)C)C(=O)N[C@@H]([C@@H](C)O)C(=O)N[C@@H](Cc2c[nH]cn2)C(=O)N[C@@H](C(c2ccccc2)c2ccccc2)C(=O)N2CCC[C@H]2C(=O)N1)C(N)=O` [Compd 21] (Isovaleryl-[Hag]TH[Dip]P[Hag]K([Ahx-Palmitoyl])-NH2; staple 1-6), the 50% inhibitory concentration (IC50) is greater than 500 nM.

Take `CCCCCCCCCCCCCCCC(=O)NCCCCCC(=O)NCCCC[C@H](NC(=O)C[C@H](Cc1ccccc1)NC(=O)[C@@H]1CCC=CCC[C@H](NC(=O)CC(C)C)C(=O)N[C@@H]([C@@H](C)O)C(=O)N[C@@H](Cc2c[nH]cn2)C(=O)N[C@@H](C(c2ccccc2)c2ccccc2)C(=O)N2CCC[C@H]2C(=O)NCCCC(=O)N1)C(=O)N[C@H](CCCCN)C(N)=O` [Compd 66] (Isovaleryl-[Hag]TH[Dip]P[GABA][Hag][β3hF]K([Ahx-Palmitoyl])[dK]-NH2; staple 1-7): the 50% inhibitory concentration (IC50) was 10 to 100 nM.

The compound `CCCCCCCCCCCCCCCC(=O)NCCCCCC(=O)NCCCC[C@H](NC(=O)C[C@H](Cc1ccccc1)NC(=O)[C@@H]1CCC=CCC[C@H](NC(=O)CC(C)C)C(=O)N[C@@H](CC(C)(C)C)C(=O)N[C@@H](Cc2c[nH]cn2)C(=O)N[C@@H](C(c2ccccc2)c2ccccc2)C(=O)N2CCC[C@H]2C(=O)N[C@@H](C)C(=O)N[C@@H]([C@@H](C)CC)C(=O)N1)C(=O)N[C@H](CCCCN)C(N)=O` [Compd 58] (Isovaleryl-[Hag][tBuAla]H[Dip]PAI[Hag][β3hF]K([Ahx-Palmitoyl])[dK]-NH2; staple 1-8) had a half-inhibitory concentration (IC50) greater than 500 nM.

As for `CCCCCCCCCCCCCCCC(=O)NCCCCCC(=O)NCCCC[C@H](NC(=O)C[C@H](Cc1ccccc1)NC(=O)[C@@H]1CCC=CCC[C@H](NC(=O)CC(C)C)C(=O)N[C@@H]([C@@H](C)O)C(=O)N[C@@H](CC(C)(C)C)C(=O)N[C@@H](C(c2ccccc2)c2ccccc2)C(=O)N2CCC[C@H]2C(=O)N[C@@H](C)C(=O)N[C@@H]([C@@H](C)CC)C(=O)N1)C(=O)N[C@H](CCCCN)C(N)=O` [Compd 59] (Isovaleryl-[Hag]T[tBuAla][Dip]PAI[Hag][β3hF]K([Ahx-Palmitoyl])[dK]-NH2; staple 1-8), the IC50 was greater than 500 nM.

Consider `CCCCCCCCCCCCCCCC(=O)NCCCCCC(=O)NCCCC[C@H](NC(=O)C[C@H](Cc1ccccc1)NC(=O)[C@@H](CCCCN)NC(=O)[C@@H](NC(=O)[C@@H]1CCCCC[C@H](NC(=O)[C@H](Cc2c[nH]cn2)NC(=O)[C@@H](NC(=O)[C@H](CCC(=O)O)NC(=O)CC(C)C)[C@@H](C)O)C(=O)N2CCC[C@H]2C(=O)N1)[C@@H](C)CC)C(=O)N[C@H](CCCCN)C(N)=O` [Compd 7], for which the IC50 is greater than 500 nM.
